Measurements from patent US5811427A (priority 1997, dated 1998).

Assays:
Phytophthora infestans = test: whole plant or invertebrate; type: in vivo; details: in Solanum lycopersicum, 144 h, read-out: percent disease control, TLB
Pythium ultimum = test: Fungitoxicity against Pythium ultimum (inhibition of mycelial growth in liquid broth); type: cell-based; details: Globisporangium ultimum, 48 hours at 25° C. with shaking, asparagine-sucrose broth, read-out: % Inhibition of growth (increase in mycelial dry weight) as compared to controls
Method: Compounds were tested for fungitoxicity against Pythium ultimum according to the procedures set forth below.
Test compounds were dissolved in dimethylsulfoxide at 20 mg/ml and 0.1 ml was added to 19.9 ml of a liquid asparagine-sucrose broth, prepared according to the method described in Erwin, D. C., and Katznelson, K., Canadian Journal of Microbiology 7, 15 (1971), in 9 cm petri dishes to give a concentration of 100 ppm of the compound. Each plate was inoculated with a mycelial plug, 7 mm in diameter, taken from the growing edge of a culture of Pythium ultimum grown on potato dextrose agar. Two replicate plates were used for each treatment. After growth for 48 hours at 25° C. with shaking on a gyrotary shaker at 60 rpm, the increase in mycelial dry weight was determined. Fungitoxicity was recorded as percent inhibition of growth as compared to controls lacking the test compounds.

Plasmopara viticola = type: in vivo; details: 7-8 days at 20° C.
[1] = test system: Pseudoperonospora cubensis; details: in vivo

Row | Compound | pest or weed control at 375 ppm (Phytophthora infestans) | inhibition at 100 ppm (Pythium ultimum) | pest or weed control at 300 ppm (Phytophthora infestans) | percent disease control, GDM (Plasmopara viticola) | percent disease control, CDM [1] | pest or weed control at 750 ppm (Phytophthora infestans)
1 | CCC(C)(NC(=O)c1ccc2ncoc2c1)C(=O)CCl (stereo not shown) [Compound 1] | 100% | 89.4% | – | – | – | –
2 | CCC(C)(NC(=O)c1cc(Cl)c2ncoc2c1)C(=O)CCl (stereo not shown) [Compound 3] | – | 92% | 100% | 100% | – | –
3 | CCC(C)(NC(=O)c1ccc2ncsc2c1)C(=O)CCl (stereo not shown) [Compound 4] | – | 94.2% | 100% | – | 50% | –
4 | CCC(C)(NC(=O)c1ccc2[nH]ccc2c1)C(=O)C(Cl)Cl (stereo not shown) [Compound 5] | – | 66.9% | – | – | 50% | 0%
5 | CCC(C)(NC(=O)c1ccc2[nH]ccc2c1)C(=O)CCl (stereo not shown) [Compound 6] | – | 88.6% | 100% | 100% | – | –
6 | CCC(C)(NC(=O)c1ccc2c(c1)CCO2)C(=O)C(Cl)Cl (stereo not shown) [Compound 7] | – | 94.5% | – | – | – | –
7 | CCC(C)(NC(=O)c1ccc2ocnc2c1)C(=O)CCl (stereo not shown) [Compound 8] | – | 93.7% | 90% | 100% | – | –
8 | CCC(C)(NC(=O)c1ccc2c(c1)CCO2)C(=O)CCl (stereo not shown) [Compound 9] | – | 91.6% | 100% | 0% | – | –
9 | CCC(C)(NC(=O)c1cc(Cl)c2nc(C)oc2c1)C(=O)CCl (stereo not shown) [Compound 12] | – | 90.7% | 95% | 90% | – | –
10 | CCC(C)(NC(=O)c1ccc2nc(C)oc2c1)C(=O)C(Cl)Cl (stereo not shown) [Compound 14] | – | 94.5% | – | – | – | –
